Measurements published in US7074761B1, “Peptides and production and use thereof” (Takeda Chemical Ind., Ltd., priority 1996, dated 2006).
Where a SMILES comes first, the peptide text is derived from it. Bridges are numbered along the chain shown (N, C = ends).

Key:
human SSTR4 = target: T1, human SSTR4 (Homo sapiens, UniProt P31391); assay: [125I]-somatostatin binding inhibition, SSTR4 CHO cell membrane fraction; conditions: 25° C., 60 minutes
T1 construct: expressed in transfected cells; host or cells: CHO(dhfr-) cells, clone SSTR4-1-2, plasmid pA-1-11-SSTR4 (vector pAKKO-111)
Description: CHO(dhfr^−) cells (1×10^6 cells) were cultured on HAM F12 medium containing 10% fetal bovine serum in a dish with a diameter of 8 cm for 24 hours. Into these cells was introduced 10 μg of the human SSTR4 DNA expression plasmid pA-1-11-SSTR4 obtained as described above in (2) by the calcium phosphate method (Cell Phect Transfection Kit; Pharmacia). At 24 hours after transfection, the medium was exchanged for DMEM containing 10% dialyzed fetal bovine serum, and cells forming a colony on this medium (namely DHFR^+ cells) were selected. Further, the cells selected were treated by the limiting dilution method for cloning from a single cell, and the cells thus cloned were measured for their somatostatin receptor protein expression ability by the binding assay described in Reference Example 1 (3). In this manner, a cell line with high somatostatin-binding activity, SSTR4-1-2, was selected.
The human somatostatin receptor expressing CHO cell lines SSTR1-8-3, SSTR2-HS5-9, SSTR3-15-19, SSTR4-1-2 and SSTR5-32-4 (10^9 cells each) were respectively suspended in phosphate buffered physiological saline supplemented with 5 mM EDTA (PBS-EDTA) and centrifuged. To each cell pellet was added 10 ml of cell homogenation buffer (10 mM NaHCO3, 5 mM EDTA, pH=7.5), followed by homogenation with a Polytron homogenizer. The homogenate was centrifuged at 400×g for 15 minutes, and the supernatant obtained was further centrifuged at 100,000×g for 1 hour to give a membrane fraction as a precipitate. […]
The membrane fractions prepared in Reference Example 6 were each diluted to 3 μg/ml with assay buffer. […] After filtration, the radioactivity of [^125I]-somatostatin remaining on the filter paper was measured. For each test substance, the binding inhibition percentage (%) was calculated according to the formula: PBM=(B−NSB)/(B0−NSB)×100 (where PBM: percent maximum binding; B: radioactivity when the test sample is added; B0: maximum bound radioactivity; NSB: non-specifically bound radioactivity). […]

human SSTR3 = target: T2, human SSTR3 (Homo sapiens, UniProt P32745); assay: cAMP accumulation inhibiting activity in SSTR3 expressing CHO cells (forskolin stimulated); format: cell-based; conditions: forskolin 10 μM, CHO cells SSTR3-15-19; read-out: ED50, inhibition of intracellular cAMP accumulation, SSTR3
T2 construct: expressed in transfected cells; host or cells: CHO(dhfr-) cells, clone SSTR3-15-19, plasmid pA-1-11-SSTR3 (vector pAKKO-111)
Description: For measuring the intracellular accumulations of cyclic adenosine 3′,5′-monophosphate (cAMP), the human somatostatin receptor expressing cell lines SSTR2-HS5-9, SSTR3-15-19, SSTR4-1-2 and SSTR5-32-4 respectively described in Reference Example 2 (3), Reference Example 3 (3), Reference Example 4 (3) and Reference Example 5 (3) were multiplied on 24-well plates until confluency. Said cells were washed with two 1-ml portions of medium A [Dulbecco-'s modified Eagle's medium (DMEM), 20 mM 2-[4-(2-hydroxyethyl)-1-piperazinyl]ethanesulfonic acid (HEPES) (pH. 7.5), 0.2% BSA, 0.2 mM 3-isobutyl-1-methylxanthine (IBMX)] and then 400 μl of medium A was added to each well and incubation was carried out at 37° C. for 1 hour. To each well were added 50 μl of a hCS-15 or hCS-17 solution (each diluted to a concentration 10 times the final concentration with medium A) and 50 μl of a forskolin solution (final concentration: 10 μM), and incubation was carried out at 37° C. for 30 minutes. The cells were washed with two 1-ml portions of medium A and then 500 μl of medium A and 100 μL of 20% aqueous perchloric acid solution were added to each well, followed by standing at 4° C. for 20 minutes for cell lysis. […] The amount of cAMP contained in this extract was determined using an Amersham's kit (cAMP EIA system).

T1 sequence (P31391 whole entry): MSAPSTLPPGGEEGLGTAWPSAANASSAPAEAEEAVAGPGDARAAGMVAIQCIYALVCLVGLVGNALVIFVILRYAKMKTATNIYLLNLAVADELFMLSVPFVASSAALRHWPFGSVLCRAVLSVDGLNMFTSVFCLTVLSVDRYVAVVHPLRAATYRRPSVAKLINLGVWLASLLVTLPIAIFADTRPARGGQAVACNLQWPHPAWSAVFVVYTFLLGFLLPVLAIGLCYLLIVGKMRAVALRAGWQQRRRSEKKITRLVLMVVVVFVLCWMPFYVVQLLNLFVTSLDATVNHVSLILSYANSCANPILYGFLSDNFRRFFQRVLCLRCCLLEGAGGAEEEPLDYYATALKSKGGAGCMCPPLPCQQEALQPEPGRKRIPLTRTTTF
T2 sequence (P32745 whole entry): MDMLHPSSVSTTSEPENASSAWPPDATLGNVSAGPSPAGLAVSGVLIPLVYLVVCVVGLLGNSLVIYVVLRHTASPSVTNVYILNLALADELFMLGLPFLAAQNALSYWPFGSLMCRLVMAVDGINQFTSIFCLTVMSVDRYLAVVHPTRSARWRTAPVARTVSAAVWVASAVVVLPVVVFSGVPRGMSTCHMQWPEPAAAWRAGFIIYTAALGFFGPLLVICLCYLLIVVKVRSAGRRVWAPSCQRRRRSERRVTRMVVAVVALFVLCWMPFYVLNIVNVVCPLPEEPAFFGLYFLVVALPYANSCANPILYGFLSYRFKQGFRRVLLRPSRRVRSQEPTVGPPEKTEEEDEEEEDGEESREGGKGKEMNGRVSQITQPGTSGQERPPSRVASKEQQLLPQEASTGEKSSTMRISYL

Row | Structure (SMILES) | IC50 (human SSTR4) | EC50 (human SSTR3)
1 | CSCC[C@H](N)C(=O)N1CCC[C@H]1C(=O)N[C@H]1CSSC[C@@H](C(=O)N[C@@H](CCCCN)C(=O)O)NC(=O)[C@H](CO)NC(=O)[C@H](CO)NC(=O)[C@H](Cc2ccccc2)NC(=O)[C@H]([C@@H](C)O)NC(=O)[C@H](CCCCN)NC(=O)[C@H](Cc2c[nH]c3ccccc23)NC(=O)[C@H](Cc2ccccc2)NC(=O)[C@H](Cc2ccccc2)NC(=O)[C@H](CC(N)=O)NC(=O)[C@H](CCCNC(=N)N)NC1=O [hCS-15] (H-MPCRNFFWKTFSSCK-OH; disulfide 3-14; N-terminus and C-terminus assumed) | 0.6 nM | 1 nM
2 | CSCC[C@H](NC(=O)[C@H](CCCNC(=N)N)NC(=O)[C@@H](N)CC(=O)O)C(=O)N1CCC[C@H]1C(=O)N[C@H]1CSSC[C@@H](C(=O)N[C@@H](CCCCN)C(=O)O)NC(=O)[C@H](CO)NC(=O)[C@H](CO)NC(=O)[C@H](Cc2ccccc2)NC(=O)[C@H]([C@@H](C)O)NC(=O)[C@H](CCCCN)NC(=O)[C@H](Cc2c[nH]c3ccccc23)NC(=O)[C@H](Cc2ccccc2)NC(=O)[C@H](Cc2ccccc2)NC(=O)[C@H](CC(N)=O)NC(=O)[C@H](CCCNC(=N)N)NC1=O [hCS-17] | 0.5 nM | 1 nM
